pIC50: −log10 of the molar value. Some results are limits rather than exact numbers.

The source of these data is patent publication US10017507B2, “Diaza-benzofluoranthrene compounds” (HARBIN PHARMACEUTICAL GROUP CO., LTD. GENERAL …, priority 2015, dated 2018).

This assay concerns the target T1, PDE1A (Homo sapiens, UniProt P54750).
T1 construct: purchased SignalChem
As to the kind of experiment: In vitro detection of phosphodiesterase (PDE): PDE1A enzyme activity by fluorescence polarization immunoassay. In kind it is biochemical. The note with it: human-derived enzyme, cAMP or cGMP substrate; read-out: IC50s for PDE1. As to the method: Test 1: In Vitro Detection of Phosphodiesterase (PDE)
the enzyme activity of PDE1A was determined by detecting the production of AMP/GMP by fluorescence polarization immunoassay, wherein AlexaFluor 633 labeled AMP/GMP was used to replace AMP/GMP to bind with the antibody.
Reaction buffer: 10 mM Tris-HCl, pH 7.5, 5 mM magnesium chloride, 0.01% Brij 35, 1 mM DTT and 1% DMSO;
Enzyme substrate: […] cAMP or cGMP (Ca^2+-calmodulin acts as a cofactor of PDE1A)
Detection reagent: Transcreener® AMP2/GMP2 antibody; AMP2/GMP2 AlexaFluor 633 tracer.
Experimental Procedure and Method:
1. Human-derived enzyme (commercially available from SignalChem) to be tested and substrate were diluted with freshly prepared reaction buffer;
2. The enzyme solution (with a concentration of 3 pM) was added to the holes of the microplates;
3. A series of solutions of the compounds in 100% DMSO (with the desired concentrations) were added to the holes containing the enzyme solution by Echo550, and then the microplates were incubated for 10 minutes at room temperature;
4. The substrate solution was added to the holes containing the enzyme and compounds to start the reaction;
5. The microplates were incubated for 1 hour under room temperature and vibration;
6. The detection mixture (tracer and antibody in stop buffer) was added to stop the enzyme reaction, and the microplates were incubated for 90 minutes under vibration;
7. The equipment EnVision (PerkinElmer), Cy5 FP Ex FP 620, Em S-pol 688/P-pol 688, FP mirror D658fp/D688 was used to detect the reaction mixture, and Ex/Em 620/688 was used to detect the fluorescence polarization.
In the Excel table, the enzyme activity corresponding to the FP signal was found on the AMP/GMP standard curve by reference to the DMSO negative control, and then was converted to product concentration (nM). GraphPad Prism was used to analyze and calculate the IC50 values.
A general note: Polarisation of emitted light reports the rotation of a fluorescent probe.
As to `CC[C@@]12C=C(c3noc(C4CCN(C(=O)OC(C)(C)C)CC4)n3)n3c4c(c5ccccc53)CCN(CCC1)[C@H]42` [Example 26, Tert-butyl-4-(3-((4^1S,13aS)-13a-ethyl-2,3,4^1,5,6,13a-hexahydro-1H-indolo[3,2,1-de]pyrido[3,2,1-ij][1,5]naphthyridin-12-yl)-1,2,4-oxadiazol-5-yl)piperidine-1-carboxylate], the pIC50 was under 4.00.
`CC[C@@]12C=C(c3noc(-c4ccc(F)cc4)n3)n3c4c(c5ccccc53)CCN(CCC1)[C@H]42` [Example 27, 3-((4^1S,13aS)-13a-ethyl-2,3,4^1,5,6,13a-hexahydro-1H-indolo[3,2,1-de]pyrido[3,2,1-ij][1,5]naphthyridin-12-yl)-5-(4-fluorophenyl)-1,2,4-oxadiazole]: the pIC50 is under 4.00.
The value for `CC[C@@]12C=C(c3noc(-c4cccs4)n3)n3c4c(c5ccccc53)CCN(CCC1)[C@H]42` [Example 28, 3-((4^1S,13aS)-13a-ethyl-2,3,4^1,5,6,13a-hexahydro-1H-indolo[3,2,1-de]pyrido[3,2,1-ij][1,5]naphthyridin-12-yl)-5-(thiophen-2-yl)-1,2,4-oxadiazole] was under 4.00; that for `CC[C@@]12C=C(c3nc(-c4ccccc4)no3)n3c4c(c5ccccc53)CCN(CCC1)[C@H]42` [Example 30, 5-((4^1S,13aS)-13a-ethyl-2,3,4^1,5,6,13a-hexahydro-1H-indolo[3,2,1-de]pyrido[3,2,1-ij][1,5]naphthyridin-12-yl)-3-phenyl-1,2,4-oxadiazole] was under 4.00; that for `CC[C@@]12C=C(c3nc(-c4ccncc4)no3)n3c4c(c5ccccc53)CCN(CCC1)[C@H]42` [Example 31, 5-((4^1S,13aS)-13a-ethyl-2,3,4^1,5,6,13a-hexahydro-1H-indolo[3,2,1-de]pyrido[3,2,1-ij][1,5]naphthyridin-12-yl)-3-(pyridin-4-yl)-1,2,4-oxadiazole] was 4.70 to 6.00.
The value for `CC[C@@]12C=C(c3nc(-c4ccc(F)cc4)no3)n3c4c(c5ccccc53)CCN(CCC1)[C@H]42` [Example 32, 5-((4S,13aS)-13a-ethyl-2,3,4^1,5,6,13a-hexahydro-1H-indolo[3,2,1-de]pyrido[3,2,1-ij][1,5]naphthyridin-12-yl)-3-(4-fluorophenyl)-1,2,4-oxadiazole] was under 4.00; that for `CCc1noc(C2=C[C@]3(CC)CCCN4CCc5c(n2c2ccccc52)[C@@H]43)n1` [Example 33, 3-ethyl-5-((4^1S,13aS)-13a-ethyl-2,3,4^1,5,6,13a-hexahydro-1H-indolo[3,2,1-de]pyrido[3,2,1-ij][1,5]naphthyridin-12-yl)-1,2,4-oxadiazole] was 4.70 to 6.00.
The value for `CC[C@@]12C=C(c3nc(C(C)C)no3)n3c4c(c5ccccc53)CCN(CCC1)[C@H]42` [Example 34, 5-((4S,13aS)-13a-ethyl-2,3,4^1,5,6,13a-hexahydro-1H-indolo[3,2,1-de]pyrido[3,2,1-ij][1,5]naphthyridin-12-yl)-3-isopropyl-1,2,4-oxadiazole] was 4.70 to 6.00.
`CC[C@@]12C=C(c3nc(C4CC4)no3)n3c4c(c5ccccc53)CCN(CCC1)[C@H]42` [Example 35, 3-Cyclopropyl-5-((4^1S,13aS)-13a-ethyl-2,3,4^1,5,6,13a-hexahydro-1H-indolo[3,2,1-de]pyrido[3,2,1-ij][1,5]naphthyridin-12-yl)-1,2,4-oxadiazole]: the pIC50 is 4.70 to 6.00.
Consider `CC[C@@]12C=C(c3nc(C(F)F)no3)n3c4c(c5ccccc53)CCN(CCC1)[C@H]42` [Example 36, 3-Difluoromethyl-5-((4^1S,13aS)-13a-ethyl-2,3,4^1,5,6,13a-hexahydro-1H-indolo[3,2,1-de]pyrido[3,2,1-ij][1,5]naphthyridin-12-yl)-1,2,4-oxadiazole], for which the pIC50 is 4.00 to 4.70.
Turning to `CC[C@@]12C=C(c3nc(C(C)(C)O)no3)n3c4c(c5ccccc53)CCN(CCC1)[C@H]42` [Example 37, 2-(5-((4^1S,13aS)-13a-ethyl-2,3,4^1,5,6,13a-hexahydro-1H-indolo[3,2,1-de]pyrido[3,2,1-ij][1,5]naphthyridin-12-yl)-1,2,4-oxadiazol-3-yl)-propan-2-ol], the pIC50 was 4.70 to 6.00.
For `CC[C@@]12C=C(C3=N[C@@H](C)CO3)n3c4c(c5ccccc53)CCN(CCC1)[C@H]42` [Example 38, (S)-2-((4^1S,13aS)-13a-ethyl-2,3,4^1,5,6,13a-hexahydro-1H-indolo[3,2,1-de]pyrido[3,2,1-ij][1,5]naphthyridin-12-yl)-4-methyl-4,5-dihydrooxazole], the pIC50 was 4.00 to 4.70.
As for `CC[C@@]12C=C(c3nc(C)ns3)n3c4c(c5ccccc53)CCN(CCC1)[C@H]42` [Example 39, 5-((4^1S,13aS)-13a-ethyl-2,3,4^1,5,6,13a-hexahydro-1H-indolo[3,2,1-de]pyrido[3,2,1-ij][1,5]naphthyridin-12-yl)-3-methyl-1,2,4-thiadiazole], the pIC50 is 4.70 to 6.00.
To `CC[C@@]12C=C(c3nc(C)c(C)s3)n3c4c(c5ccccc53)CCN(CCC1)[C@H]42` [Example 40, 2-((4^1S,13aS)-13a-ethyl-2,3,4^1,5,6,13a-hexahydro-1H-indolo[3,2,1-de]pyrido[3,2,1-ij][1,5]naphthyridin-12-yl)-4,5-dimethylthiazole] belongs 4.70 to 6.00; to `CC[C@@]12C=C(c3nc(C)c(OC)o3)n3c4c(c5ccccc53)CCN(CCC1)[C@H]42` [Example 41, 2-((4^1S,13aS)-13a-ethyl-2,3,4^1,5,6,13a-hexahydro-1H-indolo[3,2,1-de]pyrido[3,2,1-ij][1,5]naphthyridin-12-yl)-5-methoxy-4-methyloxazole], at least 6.00.
The value for `CC[C@@]12C=C(c3cn4ccccc4n3)n3c4c(c5ccccc53)CCN(CCC1)[C@H]42` [Example 42, (4^1S,13aS)-13a-ethyl-12-(imidazo[1,2-a]pyridin-2-yl)-2,3,4^1,5,6,13a-hexahydro-1H-indolo[3,2,1-de]pyrido[3,2,1-ij][1,5]naphthyridine] was 4.70 to 6.00; that for `CC[C@@]12C=C(c3csc(N)n3)n3c4c(c5ccccc53)CCN(CCC1)[C@H]42` [Example 43, 4-((4^1S,13aS)-13a-ethyl-2,3,4^1,5,6,13a-hexahydro-1H-indolo[3,2,1-de]pyrido[3,2,1-ij][1,5]naphthyridin-12-yl)-thiazole-2-amine] was 4.00 to 4.70.
For the molecule `CC[C@@]12C=C(c3cn4ccc(C(F)(F)F)cc4n3)n3c4c(c5ccccc53)CCN(CCC1)[C@H]42` [Example 44, (4^1S,13aS)-13a-ethyl-12(7-(trifluoromethyl)imidazo[1,2-a]pyridin-2-yl)-2,3,4^1,5,6,13a-hexahydro-1H-indolo[3,2,1-de]pyrido[3,2,1-ij][1,5]naphthyridine], the pIC50 is 4.00 to 4.70.
Turning to `CC[C@@]12C=C(c3ccno3)n3c4c(c5ccccc53)CCN(CCC1)[C@H]42` [Example 45, 5-((4^1S,13aS)-13a-ethyl-2,3,4^1,5,6,13a-hexahydro-1H-indolo[3,2,1-de]pyrido[3,2,1-ij][1,5]naphthyridin-12-yl)isoxazole], the pIC50 was 4.00 to 4.70.
As to `CC[C@@]12C=C(c3cc(C)no3)n3c4c(c5ccccc53)CCN(CCC1)[C@H]42` [Example 47, 5-((4^1S,13aS)-13a-ethyl-2,3,4^1,5,6,13a-hexahydro-1H-indolo[3,2,1-de]pyrido[3,2,1-ij][1,5]naphthyridin-12-yl)-3-methylisoxazole], the pIC50 is 4.70 to 6.00.
To `CCC/C(=N\OC)C1=C[C@]2(CC)CCCN3CCc4c(n1c1ccccc41)[C@@H]32` [Example 48, 1-((4^1S,13aS)-13a-ethyl-2,3,4^1,5,6,13a-hexahydro-1H-indolo[3,2,1-de]pyrido[3,2,1-ij][1,5]naphthyridin-12-yl)butan-1-one-O-methyl oxime] belongs 4.70 to 6.00; to `CCCC(O)(CCC)C1=C[C@]2(CC)CCCN3CCc4c(n1c1ccccc41)[C@@H]32` [Example 49, 4-((4^1S,13aS)-13a-ethyl-2,3,4^1,5,6,13a-hexahydro-1H-indolo[3,2,1-de]pyrido[3,2,1-ij][1,5]naphthyridin-12-yl) heptan-4-ol], under 4.00.
Consider `CC[C@@]12C=C(c3nc(C)co3)n3c4c(c5ccccc53)CCN(CCC1)[C@H]42` [Example 50, 2-((4^1S,13aS)-13a-ethyl-2,3,4^1,5,6,13a-hexahydro-1H-indolo[3,2,1-de]pyrido[3,2,1-ij][1,5]naphthyridin-12-yl)-4-methyloxazole], for which the pIC50 is 4.70 to 6.00.
The value for `CC[C@@]12C=C(c3ncc(C)o3)n3c4c(c5ccccc53)CCN(CCC1)[C@H]42` [Example 51, 2-((4^1S,13aS)-13a-ethyl-2,3,4^1,5,6,13a-hexahydro-1H-indolo[3,2,1-de]pyrido[3,2,1-ij][1,5]naphthyridin-12-yl)-5-methyloxazole] was 4.70 to 6.00.
In the case of `CC[C@@]12C=C(c3nc(C)c(C)o3)n3c4c(c5ccccc53)CCN(CCC1)[C@H]42` [Example 52, 2-((4^1S,13aS)-13a-ethyl-2,3,4^1,5,6,13a-hexahydro-1H-indolo[3,2,1-de]pyrido[3,2,1-ij][1,5]naphthyridin-12-yl)-4,5-dimethyloxazole], the pIC50 was at least 6.00.
